Data from PMC10454726 (International Journal of Molecular Sciences, 2023).

How the values were obtained:
[1] = tested on: streptozotocin-induced diabetic rats; test: Oral glucose tolerance test in streptozotocin-induced diabetic rats; assay type: in vivo, Wistar rat; parameters: AUC of the OGTT: unit not given here; conditions: for glucose blood levels in OGTT compared to untreated animals: after 14 days of administration, ANOVA/Bonferroni
Procedure: (§1) After a week of acclimation, 35 male Wistar rats were given a single intraperitoneal dose of STZ (Sigma Chemical Co. Toluca, Estado de México, Mexico) at a dosage of 45 mg/kg of body weight, after fasting for 12 h overnight with free access to water. To prevent initial drug-induced hypoglycemia mortality, these animals were given a 10% sucrose solution 24 h after administration. STZ was dissolved in 0.1 M of sodium citrate buffer (pH 4.5) and administered in a final volume of 5 mL/kg. A week after STZ injection, diabetes in streptozotocin rats was confirmed by measuring fasting blood glucose (by glucose oxidase method). Animals with a blood glucose (tail vein) above 126 mg/dL were considered diabetic and used for the experiment to create groups 2, 3, 4, 5, 6, and 7 [1, 13]. Blood glucose levels were measured using a glucometer (Accu-Chek Active, Roche, Mannheim, Germany) and reactive strips (Accu-Chek Active Glucose test strips, Roche). The presence of hyperglycemia and insulin level confirmed a model very similar to T2D in humans. For the pharmacological study, the final number of animals was 35 male rats, with 3 rats being sacrificed during the treatment stage. One was administered with FC-114 and two with acarbose. The first rat was damaged during oral glucose administration in the OGTT at week 5, and the other rats had gastrointestinal complications in week 7.
(§2) The diabetic animals in group 2 (untreated) were given 4% v/v aqueous EtOH solution (vehicle of treatments) in a volume of 6.5 mL/kg body weight. The other groups (3–7) received different treatments for 14 days (weeks 5 to 7). […] All of the treatments were at equimolar doses of PIO and adjusted to the weekly weight of each rat. […] The commercial PIO tablet (30 mg) was crushed in 7.5 mL of vehicle and given to each animal in 4.0 mg/mL of suspension. The FC-114 and FC-122 suspensions were created at 6.2 and 6.0 mg/mL, respectively. The commercial acarbose tablet (50 mg) was crushed in 7.5 mL of the vehicle and given to each animal in a suspension of 6.6 mg/mL. Each suspension was used within 2 days of its preparation, and the administration volume was near to 2.5 mL for each rat.
The OGTT was carried out in weeks 3, 4, 5, 6, and 7. Prior to the OGTT, all animal groups fasted overnight for eight hours with free access to water. Each rat was weighed and then received a 2 g/kg glucose overload orally and blood samples were taken from the tail vein [13, 97]. Glucose levels were measured using a glucometer (Accu-Chek Active, Roche, Mannheim, Germany) at 0, 30, 60, 90, 120, and 180 min after glucose administration. The AUC of the OGTT was calculated using the blood glucose concentration over time and the GraphPad Prism 8.0.1 software package (GraphPad Software; Science Inc., San Diego, CA, USA) was used to compare the effectiveness of the treatments.

[2] = target: α-glucosidase from Rominococcus obeum (Blautia obeum, UniProt A5ZY13); test: Enzymatic kinetics of α-glucosidase inhibition (pNPG substrate); assay type: biochemical
α-glucosidase from Rominococcus obeum, sequence (A5ZY13 entry or part of it): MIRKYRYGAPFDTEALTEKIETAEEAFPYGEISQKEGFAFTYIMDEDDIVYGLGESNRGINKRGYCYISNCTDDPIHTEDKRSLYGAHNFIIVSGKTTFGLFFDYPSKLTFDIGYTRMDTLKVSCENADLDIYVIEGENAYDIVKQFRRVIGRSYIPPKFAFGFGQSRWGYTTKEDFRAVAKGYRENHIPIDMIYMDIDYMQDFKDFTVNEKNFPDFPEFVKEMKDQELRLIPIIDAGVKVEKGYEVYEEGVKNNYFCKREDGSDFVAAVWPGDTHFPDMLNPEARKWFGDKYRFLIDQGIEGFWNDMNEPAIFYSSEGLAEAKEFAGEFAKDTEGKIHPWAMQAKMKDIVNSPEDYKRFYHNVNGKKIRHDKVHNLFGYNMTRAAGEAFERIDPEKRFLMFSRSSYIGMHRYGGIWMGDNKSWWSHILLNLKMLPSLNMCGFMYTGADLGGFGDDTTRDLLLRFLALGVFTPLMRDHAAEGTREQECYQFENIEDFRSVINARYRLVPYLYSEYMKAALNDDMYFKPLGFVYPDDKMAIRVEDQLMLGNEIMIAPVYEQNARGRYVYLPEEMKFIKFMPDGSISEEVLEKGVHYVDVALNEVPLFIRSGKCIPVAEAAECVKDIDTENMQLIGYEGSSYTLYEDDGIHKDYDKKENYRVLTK
Procedure: The kinetic studies for PTP1B and α-glucosidase were carried out under the same conditions described in the references.

[3] = tested on: streptozotocin-induced diabetic rats; test: Weekly fasting glucose in streptozotocin-induced diabetic rats; assay type: in vivo, Wistar rat; conditions: after 7 and 14 days of treatment (weeks 6 and 7)
Procedure: as §1, §2

[4] = cited from earlier work
[5] = tested on: streptozotocin-induced diabetic rats; conditions: cited from earlier work
[6] = cited from earlier work; remark: listed apart in the source
[7] = Cytotoxic effect on Human Foreskin fibroblasts (SRB); assay type: cell-based; conditions: HFF-1 human foreskin fibroblasts, HFF-1 cells
Procedure: However, at high concentrations, they can be harmful to cells. For humans, doses less than 100 mg/day are considered safe. […] Therefore, we conducted cytotoxicity assays on Human Foreskin fibroblasts (HFF-1) and an AOT on female Wistar rats to assess their safety.
In a 96-well plate, 7000 cells per well of Human Foreskin fibroblasts (HFF-1) were cultured. […] Untreated cells were also included as a negative control. At the end of the incubation period, the cell contents were precipitated with 50 µL of a 50% aqueous solution of trichloroacetic acid (TCA) at 4 °C for 1 h. The supernatant was discarded and washed 5 times with distilled water. Afterward, the plates were allowed to dry at room temperature. The cell contents were incubated with 100 µL of a 0.04% sulforhodamine B (SRB) solution for 1 h at room temperature. The excess SRB was removed by washing with a 1% aqueous acetic acid solution. […] With the data obtained, the viability of treated cells was calculated by comparing the control without treatment. CC50 value was determined by employing BioStat Pro 5.9.8 software (AnalystSoft Inc., Brandon, FL, USA).

[8] = tested on: humans; conditions: cited from earlier work
[9] = tested on: streptozotocin-induced diabetic rats; test: Animal weight, food and water consumption in streptozotocin-induced diabetic rats; assay type: in vivo, Wistar rat; conditions: 14 days of treatment, weeks 5 to 7
Procedure: Six female (three for each compound: FC-114 and FC-122) (220 ± 10 g, for the acute toxicity assay) and forty male (215 ± 20 g, for the pharmacologic study) albino Wistar rats were acquired from the Isolation and Animal Facility Unit, Facultad de Estudios Superiores Cuautitlán (FESC), Universidad Nacional Autónoma de México (UNAM). They were kept in standard polypropylene boxes under controlled temperature (24 ± 4 °C) on a 12 h light/dark cycle and provided conventional food (formula 5001, Rat Chow) and purified water ad libitum. […] At the end of the experiment, the animals were taken to the humanitarian endpoint by the intraperitoneal (ip) administration of 75 mg/kg of sodium pentobarbital to perform a necropsy in the bioterium of FESC, UNAM. During the necropsy, blood serum was extracted to quantify glucose, triacylglycerides, cholesterol, and insulin. The study was conducted based on the guidelines of the Declaration of Helsinki and approved by the Institutional Review Board: Internal Committee for the Care and Use of Experimentation Animals (CICUAE, according to the initials in Spanish, C23_02 on March 2023) of the FESC UNAM (Mexico). It complies with the Mexican norm for this matter (NOM-062-ZOO-1999, Technical Specifications for the Production, Care, and Use of Laboratory Animals, SAGARPA), as well as the Guide for the Care and Use of Laboratory Animals of the National Research Council and National Institutes of Health (NIH Publications No. 8023, revised 1978).
as §1, §2

[10] = Week 5 (day 1 of treatment), oral, glibenclamide 0.6, FC-114 51.3, FC-122 49.1, PIO 30, acarbose 54.3 mg/kg/day
[11] = Week 6 (day 7 of treatment), same doses
[12] = Week 7 (day 14 of treatment), same doses

| Structure (SMILES) | AUC of the OGTT [1, 10] | AUC of the OGTT [1, 11] | AUC of the OGTT [1, 12] | fasting glucose levels [3] | effective doses to cause decreases in blood glucose [4] [mg/kg] | glucose blood levels in OGTT compared to untreated animals [1] | other results |
| --- | --- | --- | --- | --- | --- | --- | --- |
| C[C@H]1O[C@H](O[C@H]2[C@H](O)[C@@H](O)[C@@H](O[C@H]3[C@H](O)[C@@H](O)C(O)O[C@@H]3CO)O[C@@H]2CO)[C@H](O)[C@@H](O)[C@@H]1N[C@H]1C=C(CO)[C@@H](O)[C@H](O)[C@H]1O (stereo partly shown) [acarbose] | 81,327 | 81,507 | 71,240 | downward trend | 75 to 300 | – | Inhibition type (α-glucosidase) ([2]; Lineweaver-Burk plots): competitive; Ki ([2]; substrate pNPG, Lineweaver-Burk): 26.8 µM |
| COc1ccc(Cl)cc1C(=O)NCCc1ccc(S(=O)(=O)NC(=O)NC2CCCCC2)cc1 [glibenclamide] | 62,022 | 67,311 | 50,874 | downward trend | – | ranked second | – |
| CC1(C)[C@@H](O)CC[C@]2(C)[C@H]3C(=O)C=C4[C@@H]5C[C@@](C)(C(=O)O)CC[C@]5(C)CC[C@@]4(C)[C@]3(C)CC[C@@H]12 [GA, glycyrrhetinic acid] | – | – | – | – | – | – | insulin levels ([5]; 100 mg/kg): increase in insulin levels; plasma TAG, total cholesterol, HDL, VLDL, LDL ([5]; 100 mg/kg): restored normal levels; blood glucose and insulin levels ([5]; oral 100 mg/kg, compared with glibenclamide 600 μg/kg): improved blood glucose and insulin levels; LD50 [6]: 610 mg/kg; CC50 at 48 h [7]: 62 ± 2 µM |
| CC1(C)[C@@H](O[C@H]2O[C@H](C(=O)O)[C@@H](O)[C@H](O)[C@H]2O[C@@H]2O[C@H](C(=O)O)[C@@H](O)[C@H](O)[C@H]2O)CC[C@]2(C)[C@H]3C(=O)C=C4[C@@H]5C[C@@](C)(C(=O)O)CC[C@]5(C)CC[C@@]4(C)[C@]3(C)CC[C@@H]12 [GL, glycyrrhizic acid] | – | – | – | – | – | – | dose considered safe [8]: less than 100 mg/day |
| CCc1ccc(CCOc2ccc(CC3SC(=O)NC3=O)cc2)nc1 (stereo not shown) [PIO, pioglitazone] | 49,677 | 43,584 | 40,044 | – | 15 to 45 | significantly improved | effectiveness in lowering blood glucose during the glucose tolerance curve (AUC) ([1]; week 7): most effective; animal weight compared to the untreated group (T2D) [9]: difference in weight |
